# Laboratory results as given in US7781452B2, “Imidazopyridine compound” (Eisai R&D Management Co., Ltd., priority 2004, dated 2010).
# Key:
# [1] = tested on: Gastric Acid Secretion in Rats; experiment: Inhibitory effects on gastric acid secretion in pylorus-ligated, histamine-stimulated rats; type: in vivo, rat; details: male SD rats, 10 mg/kg into the duodenum, histamine 20 mg/kg subcutaneously, eight hours after administration
# Experimental: Seven-week-old male SD rats fasted from the day before experiments were used. The rats were subjected to celiotomy along the median line under ether anesthesia, and the pylorus was ligated. Test compounds were dissolved or suspended in 0.5% methyl-cellulose solution (solvent) and prepared the concentration of 5 mg/ml. […] Then the abdomen was sutured. Eight hours after the administration of solvent or test compound, rat was sacrificed and stomach was isolated for the measurement of the volume of gastric juice. After the volume of gastric juice was determined, the acid concentration was measured using 0.25 ml of gastric juice by titration against 0.04 mol/l NaOH solution to pH 7.0. The acid output was calculated as (volume of gastric juice)×(acid concentration). The inhibition rate (%) was calculated according to the formula shown below. The number of animals of each experimental group is four. Inhibition rate (%)=100×(A−B)/A • A: acid output in solvent administered group • B: acid output in test compound administered group
# CYP1A1 = experiment: Cytochrome P450 (CYP) gene induction in human cryopreserved hepatocytes, CYP1A1 mRNA; type: in vitro ADME; details: for CYP1A1 mRNA induction potency, % of the positive control (100%): 48-hr exposure
# Experimental: (§1) Human cryopreserved hepatocytes purchased from In Vitro Technology were quickly thawed at 37° C. After ice-cold William's E (WE) medium supplemented with 10% FCS, penicillin (100 U/mL), streptomycin (100 μg/mL) and glutamine (2 mM) (WE medium) was gradually added to hepatocytes, the cells were centrifuged at 500 rpm for 5 min at 4° C. The supernatant was removed and the cells were resuspended in WE medium to obtain 5×10^5 cells/mL. The cells were plated into collagen-coated 48-well plates (1×10^5 cells/cm^2) and cultured at 37° C. and 5% CO2 for about 24 hr.
# (§2) Medium was replaced with Hepato-STIM (trademark, BD Biosciences) supplemented with EGF, penicillin (100 U/mL), streptomycin (100 μg/mL) and glutamine (2 mM) (HS medium) and the cells were cultured for about 24 hr. At about 48 hr of culture after seeding, the cells were treated with the test compounds and β-naphtoflavone (β-NF, positive control for human CYP1A1 and CYP1A2, SIGMA) prepared by HS medium for about 48 hr. Medium was changed daily. The final concentration of β-NF was set to 10 μM. All compounds were dissolved in dimethylsulfoxide (DMSO, Wako), resulting in a final vehicle concentration of 0.1% (v/v). To the control cells, HS medium containing 0.1% DMSO was added.
# (§3) After 48-hr exposure, cells were washed once using PBS, and total RNA was purified using Qiagen RNeasy Mini Kit (Qiagen) according to the manufacturer's instruction. Purified total RNA was then used as template for first strand cDNA synthesis. For reverse transcription (RT) reaction, Oligo dT was employed. The RT reaction was carried using TaqMan Reverse Transcription Reagents (Applied Biosystems) at 25° C. for 10 min followed by 60-min reaction at 48° C., and then the enzyme was inactivated at 95° C. for 5 min in Gene Amp PCR System 9700. The resulting cDNA was subjected to polymerase chain reaction (PCR) in ABI7700 Sequence Detection System (Applied Biosystems). For the mRNA analyses of CYP1A1 and GAPDH, SYBR Green PCR Core Reagents kit (Applied Biosystems) was used, and CYP1A2 mRNA was quantified using TaqMan PCR Core Reagents kit (Applied Biosystems).
# (§4) The amount of mRNA of CYP1A1 or CYP1A2 was divided by that of GAPDH. Then, the ratio (fold) of the values obtained in test compounds (X) and positive control (P) against that in control was calculated. The induction potency of test compound (%) was obtained by following equation: Induction potency of test compound (%)=100×(X−1)/(P−1) <Results>
# CYP1A2 = experiment: Cytochrome P450 (CYP) gene induction in human cryopreserved hepatocytes, CYP1A2 mRNA; type: in vitro ADME; details: for CYP1A2 mRNA induction potency, % of the positive control (100%): 48-hr exposure
# Experimental: as §1, §2, §3, §4
# [2] = 10 μM, normalised to GAPDH, vs 0.1% DMSO control
compound,measurement,setting,value
"COc1ccnc(C[S+]([O-])c2nc3cc(C)c(OC)nc3[n-]2)c1C.[Na+] (stereo not drawn) [Example 1, 5-Methoxy-2-(((4-methoxy-3-methyl-2-pyridinyl)methyl)sulfinyl)-6-methyl-3H-imidazo[4,5-b]pyridineSodium salt]",Inhibition rate(%) of acid output,[1],79%
same,"CYP1A1 mRNA induction potency, % of the positive control (100%)",CYP1A1; 0.3 μM,2.03%
same,"CYP1A1 mRNA induction potency, % of the positive control (100%)",CYP1A1; 1 μM,8.02%
same,"CYP1A1 mRNA induction potency, % of the positive control (100%)",CYP1A1; 3 μM,11.27%
same,"CYP1A1 mRNA induction potency, % of the positive control (100%)",CYP1A1; 10 μM,18.46%
same,"CYP1A2 mRNA induction potency, % of the positive control (100%)",CYP1A2; 0.3 μM,8.36%
same,"CYP1A2 mRNA induction potency, % of the positive control (100%)",CYP1A2; 1 μM,12.16%
same,"CYP1A2 mRNA induction potency, % of the positive control (100%)",CYP1A2; 3 μM,11.78%
same,"CYP1A2 mRNA induction potency, % of the positive control (100%)",CYP1A2; 10 μM,29.18%
"COc1ccnc(C[S+]([O-])c2nc3cc(C)c(OCC(F)(F)F)nc3[n-]2)c1C.[Na+] (stereo not drawn) [Example 2, 2-(((4-Methoxy-3-methyl-2-pyridinyl)methyl]sulfinyl)-6-methyl-5-(2,2,2-trifluoroethoxy)-3H-imidazo[4,5-b]pyridine Sodium salt]",Inhibition rate(%) of acid output,[1],86%
"O=c1cc(-c2ccccc2)oc2ccc3ccccc3c12 [βNF, β-naphtoflavone, reference compound]","CYP1A1 mRNA induction potency, % of the positive control (100%)",CYP1A1; 10 μM,100%
same,CYP1A1 mRNA fold induction as compared with control (figures in parentheses),CYP1A1; [2],79.97 fold
same,"CYP1A2 mRNA induction potency, % of the positive control (100%)",CYP1A2; 10 μM,100%
same,CYP1A2 mRNA fold induction as compared with control (figures in parentheses),CYP1A2; [2],14.16 fold
"COc1ccnc(C[S+]([O-])c2nc3cc(C)c(OCC(F)F)nc3[n-]2)c1C.[Na+] (stereo not drawn) [Example 3, 5-(2,2-Difluoroethoxy)-2-(((4-methoxy-3-methyl-2-pyridinyl)methyl)sulfinyl)-6-methyl-3H-imidazo[4,5-b]pyridine Sodium salt]",Inhibition rate(%) of acid output,[1],85%
